From patent US11852971B2, “Compound, photosensitive resin composition including the same, photosensitive resin layer, color filter and display device” (SAMSUNG SDI CO., LTD., priority 2019, dated 2023)

Legend:
[1] = Measurement of the shortest wavelength of full width at half maximum (FWHM) with respect to maximum absorption wavelength (absorption spectrum); assay type: physicochemical; details: 0.005 wt % in PGMEA; UV-1800
Source text: The shortest wavelength of the full width at half maximum (FWHM) with respect to the maximum absorption wavelengths denotes a wavelength having the smallest value (a) among the energy widths (Δλ) of the maximum absorption wavelength (b) in the absorption spectrum of a particular phthalocyanine compound. (Refer to the FIGURE)
Evaluation 1: Measurement of the Shortest Wavelength of Full Width at Half Maximum (FWHM) with respect to Maximum Absorption Wavelength
The compounds according to Synthesis Example 1 to Synthesis Example 21 and Comparative Synthesis Example 1 to Comparative Synthesis Example 6 were prepared at a concentration of 0.005 wt % using a diluting solvent (PGMEA). Absorption spectra were obtained for each of the phthalocyanine compounds according to Synthesis Example 1 to […] and Comparative Synthesis Example 1 to Comparative Synthesis Example 6, and the results are shown in Table 1 (UV-1800, SHTMADZU).

[2] = Solubility measurement in dilution solvent (PGMEA); assay type: physicochemical; details: PGMEA added to 0.5 g compound, stirred 100 rpm, one hour, 25° C.
Protocol: Evaluation 2: Solubility Measurement Solubility of the compounds according to Synthesis Examples 11 to 21 and Comparative Synthesis Examples 1 to 6 were measured by adding a dilution solvent (PGMEA) to 0.5 g of each compound and respectively stirring the mixtures (MIXROTAR VMR-5, Iuchi Seiei Dou Co.) at 100 rpm for one hour at 25° C., and the results are shown in Table 2. Solubility Evaluation Criteria Greater than or equal to 10 wt % of a compound (a solute) based on a total amount of a diluting solvent was dissolved: ∘ Less than 10 wt % of a compound (a solute) based on a total amount of a diluting solvent was dissolved: X

In the case of CC(C)(C)COc1c(Cl)c(Cl)c2c(c1Cl)/C1=N/c3c4c(Cl)c(OCC(C)(C)C)c(Cl)c(Cl)c4c4[n]3[Zn][n]3/c(c5ccccc5/c3=N/C2=N1)=N\C1=NC(=N\4)/c2ccccc21 [Synthesis Example 14], the “The shortest wavelength (nm) of full width at half maximum (FWHM) with respect to maximum absorption wavelength” value (“The shortest wavelength (nm)” below) [1] is reported as 611 nm and the Solubility [2] is reported as “○”.

For Cc1ccc(Oc2c(Cl)c(Cl)c3c(c2Cl)/C2=N/c4c5c(Cl)c(Oc6ccc(C)cc6C(C)(C)C)c(Cl)c(Cl)c5c5[n]4[Zn][n]4/c(c6ccccc6/c4=N/C3=N2)=N\C2=NC(=N\5)/c3ccccc32)c(C(C)(C)C)c1 [Synthesis Example 11], the “The shortest wavelength (nm)” value [1] was 611 nm and the Solubility [2] was “○”.

With CC(C)COc1c(Cl)c(Cl)c2c(c1Cl)/C1=N/c3c4c(Cl)c(OCC(C)C)c(Cl)c(Cl)c4c4[n]3[Zn][n]3/c(c5ccccc5/c3=N/C2=N1)=N\C1=NC(=N\4)/c2c(Cl)c(Cl)c(Cl)c(Cl)c21 [Synthesis Example 18] the “The shortest wavelength (nm)” value [1] was 617 nm and the Solubility [2] was “○”.

With CC(C)(C)c1ccc(Oc2c(Cl)c(Cl)c3c(c2Cl)/C2=N/c4c5c(Cl)c(Cl)c(Cl)c(Cl)c5c5[n]4[Zn][n]4/c(c6ccccc6/c4=N/C3=N2)=N\C2=NC(=N\5)/c3c(Cl)c(Cl)c(Cl)c(Cl)c32)c(C(C)(C)C)c1 [Synthesis Example 9] the “The shortest wavelength (nm)” value [1] was 618 nm and the Solubility [2] was “○”.

In the case of CC(C)CCOc1c(Cl)c(Cl)c2c(c1Cl)/C1=N/c3c4c(Cl)c(Cl)c(Cl)c(Cl)c4c4[n]3[Zn][n]3/c(c5ccccc5/c3=N/C2=N1)=N\C1=NC(=N\4)/c2c(Cl)c(Cl)c(Cl)c(Cl)c21 [Synthesis Example 16], the “The shortest wavelength (nm)” value [1] is reported as 618 nm and the Solubility [2] is reported as “○”.

For Cc1ccccc1Oc1c(Cl)c(Cl)c2c(c1Cl)/C1=N/c3c4c(Cl)c(Oc5ccccc5C)c(Cl)c(Cl)c4c4[n]3[Zn][n]3/c(c5ccccc5/c3=N/C2=N1)=N\C1=NC(=N\4)/c2c(Cl)c(Cl)c(Cl)c(Cl)c21 [Synthesis Example 5], the “The shortest wavelength (nm)” value [1] was 618 nm and the Solubility [2] was “○”.

For COc1ccc(Oc2c(Cl)c(Cl)c3c(c2Cl)C2=NC/3=N\c3c4c(Cl)c(Oc5ccc(OC)cc5OC)c(Cl)c(Cl)c4c4[n]3[Zn][n]3/c(c5c(Cl)c(Cl)c(Oc6ccc(OC)cc6OC)c(Cl)c5/c3=N/C3=NC(=N\4)/c4c(Cl)c(Oc5ccc(OC)cc5OC)c(Cl)c(Cl)c43)=N\2)c(OC)c1 [Comparative Synthesis Example 3, reference compound], the “The shortest wavelength (nm)” value [1] was 623 nm and the Solubility [2] was “X (Less than 10 wt % of a compound (a solute) based on a total amount of a diluting solvent was dissolved)”.

In the case of CC(C)c1ccccc1Oc1c(Cl)c(Cl)c2c(c1Cl)/C1=N/c3c4c(Cl)c(Oc5ccccc5C(C)C)c(Cl)c(Cl)c4c4[n]3[Zn][n]3/c(c5ccccc5/c3=N/C2=N1)=N\C1=NC(=N\4)/c2c(Cl)c(Cl)c(Cl)c(Cl)c21 [Synthesis Example 1], the “The shortest wavelength (nm)” value [1] is reported as 616 nm and the Solubility [2] is reported as “○”.

For CC(C)CCOc1c(Cl)c(Cl)c2c(c1Cl)/C1=N/c3c4c(Cl)c(OCCC(C)C)c(Cl)c(Cl)c4c4[n]3[Zn][n]3/c(c5ccccc5/c3=N/C2=N1)=N\C1=NC(=N\4)/c2ccccc21 [Synthesis Example 17], the “The shortest wavelength (nm)” value [1] was 611 nm and the Solubility [2] was “○”.

For CC(C)(C)c1ccccc1Oc1c(Cl)c(Cl)c2c(c1Cl)/C1=N/c3c4c(Cl)c(Oc5ccccc5C(C)(C)C)c(Cl)c(Cl)c4c4[n]3[Zn][n]3/c(c5ccccc5/c3=N/C2=N1)=N\C1=NC(=N\4)/c2c(Cl)c(Cl)c(Cl)c(Cl)c21 [Synthesis Example 3], the “The shortest wavelength (nm)” value [1] was 618 nm and the Solubility [2] was “○”.

In the case of CC(C)(C)c1ccc(Oc2c(Cl)c(Cl)c3c(c2Cl)C2=NC/3=N\c3c4c(Cl)c(Cl)c(Oc5ccc(C(C)(C)C)cc5C(C)(C)C)c(Cl)c4c4[n]3[Zn][n]3/c(c5c(Cl)c(Cl)c(Oc6ccc(C(C)(C)C)cc6C(C)(C)C)c(Cl)c5/c3=N/C3=NC(=N\4)/c4c(Cl)c(Oc5ccc(C(C)(C)C)cc5C(C)(C)C)c(Cl)c(Cl)c43)=N\2)c(C(C)(C)C)c1 [Comparative Synthesis Example 2, reference compound], the “The shortest wavelength (nm)” value [1] is reported as 624 nm and the Solubility [2] is reported as “X (Less than 10 wt % of a compound (a solute) based on a total amount of a diluting solvent was dissolved)”.

For CC(C)(C)c1ccccc1Oc1c(Cl)c(Cl)c2c(c1Cl)/C1=N/c3c4c(Cl)c(Oc5ccccc5C(C)(C)C)c(Cl)c(Cl)c4c4[n]3[Zn][n]3/c(c5cc(Cl)c(Cl)cc5/c3=N/C2=N1)=N\C1=NC(=N\4)/c2c(Cl)c(Cl)c(Cl)c(Cl)c21 [Comparative Synthesis Example 5, reference compound], the “The shortest wavelength (nm)” value [1] was 625 nm and the Solubility [2] was “X (Less than 10 wt % of a compound (a solute) based on a total amount of a diluting solvent was dissolved)”.

For Cc1ccc(Oc2c(Cl)c(Cl)c3c(c2Cl)/C2=N/c4c5c(Cl)c(Oc6ccc(C)cc6C(C)(C)C)c(Cl)c(Cl)c5c5[n]4[Zn][n]4/c(c6ccccc6/c4=N/C3=N2)=N\C2=NC(=N\5)/c3c(Cl)c(Cl)c(Cl)c(Cl)c32)c(C(C)(C)C)c1 [Synthesis Example 10], the “The shortest wavelength (nm)” value [1] was 616 nm and the Solubility [2] was “○”.

For COc1ccc(Oc2c(Cl)c(Cl)c3c4[n]5c(c3c2Cl)/N=C2N=C(/N=c3/c6c(Cl)c(Cl)c(Cl)c(Cl)c6/c([n]3[Zn]5)=N/C3=NC(=N\4)/c4c(Cl)c(Cl)c(Cl)c(Cl)c43)c3c(Cl)c(Cl)c(Cl)c(Cl)c3\2)c(OC)c1 [Comparative Synthesis Example 4, reference compound], the “The shortest wavelength (nm)” value [1] was 626 nm and the Solubility [2] was “X (Less than 10 wt % of a compound (a solute) based on a total amount of a diluting solvent was dissolved)”.

With CC(C)(C)COc1c(Cl)c(Cl)c2c(c1Cl)/C1=N/c3c4c(Cl)c(Cl)c(Cl)c(Cl)c4c4[n]3[Zn][n]3/c(c5ccccc5/c3=N/C2=N1)=N\C1=NC(=N\4)/c2c(Cl)c(Cl)c(Cl)c(Cl)c21 [Synthesis Example 13] the “The shortest wavelength (nm)” value [1] was 618 nm and the Solubility [2] was “○”.

In the case of CC(C)c1ccccc1Oc1c(Cl)c(Cl)c2c(c1Cl)/C1=N/c3c4c(Cl)c(Cl)c(Cl)c(Cl)c4c4[n]3[Zn][n]3/c(c5ccccc5/c3=N/C2=N1)=N\C1=NC(=N\4)/c2c(Cl)c(Cl)c(Cl)c(Cl)c21 [Synthesis Example 2], the “The shortest wavelength (nm)” value [1] is reported as 617 nm and the Solubility [2] is reported as “○”.

For CC(C)(C)c1ccccc1Oc1c(Cl)c(Cl)c2c(c1Cl)/C1=N/c3c4c(Cl)c(Cl)c(Cl)c(Cl)c4c4[n]3[Zn][n]3/c(c5ccccc5/c3=N/C2=N1)=N\C1=NC(=N\4)/c2c(Cl)c(Cl)c(Cl)c(Cl)c21 [Synthesis Example 4], the “The shortest wavelength (nm)” value [1] was 617 nm and the Solubility [2] was “○”.

In the case of CC(C)(C)COc1c(Cl)c(Cl)c2c(c1Cl)/C1=N/c3c4c(Cl)c(OCC(C)(C)C)c(Cl)c(Cl)c4c4[n]3[Zn][n]3/c(c5ccccc5/c3=N/C2=N1)=N\C1=NC(=N\4)/c2c(Cl)c(Cl)c(Cl)c(Cl)c21 [Synthesis Example 12], the “The shortest wavelength (nm)” value [1] is reported as 617 nm and the Solubility [2] is reported as “○”.

With CC(C)(C)c1ccc(Oc2c(Cl)c(Cl)c3c(c2Cl)/C2=N/c4c5c(Cl)c(Oc6ccc(C(C)(C)C)cc6C(C)(C)C)c(Cl)c(Cl)c5c5[n]4[Zn][n]4/c(c6ccccc6/c4=N/C3=N2)=N\C2=NC(=N\5)/c3c(Cl)c(Cl)c(Cl)c(Cl)c32)c(C(C)(C)C)c1 [Synthesis Example 8] the “The shortest wavelength (nm)” value [1] was 616 nm and the Solubility [2] was “○”.

For CC(C)CCOc1c(Cl)c(Cl)c2c(c1Cl)/C1=N/c3c4c(Cl)c(OCCC(C)C)c(Cl)c(Cl)c4c4[n]3[Zn][n]3/c(c5ccccc5/c3=N/C2=N1)=N\C1=NC(=N\4)/c2c(Cl)c(Cl)c(Cl)c(Cl)c21 [Synthesis Example 15], the “The shortest wavelength (nm)” value [1] was 617 nm and the Solubility [2] was “○”.

For CCC(C)c1ccccc1Oc1c(Cl)c(Cl)c2c(c1Cl)C1=NC/2=N\c2c3c(Cl)c(Cl)c(Oc4ccccc4C(C)CC)c(Cl)c3c3[n]2[Zn][n]2/c(c4c(Cl)c(Cl)c(Oc5ccccc5C(C)CC)c(Cl)c4/c2=N/C2=NC(=N\3)/c3c(Cl)c(Oc4ccccc4C(C)CC)c(Cl)c(Cl)c32)=N\1 (centres unmarked) [Comparative Synthesis Example 1, reference compound], the “The shortest wavelength (nm)” value [1] was 628 nm and the Solubility [2] was “X (Less than 10 wt % of a compound (a solute) based on a total amount of a diluting solvent was dissolved)”.

In the case of CC(C)(C)c1ccc(Oc2c(Cl)c(Cl)c3c(c2Cl)/C2=N/c4c5ccccc5c5[n]4[Zn][n]4/c(c6ccccc6/c4=N/C3=N2)=N\C2=NC(=N\5)/c3ccccc32)c(C(C)(C)C)c1 [Synthesis Example 21], the “The shortest wavelength (nm)” value [1] is reported as 608 nm and the Solubility [2] is reported as “X (Less than 10 wt % of a compound (a solute) based on a total amount of a diluting solvent was dissolved)”.
